# *1 amine or outer side, *2 acyl side, *3 side chain or, on linkers, in order; H or OH if unused. Where a SMILES comes first, the peptide text is derived from it. Bridges are numbered along the chain shown (N, C = ends). Roman numbers before positions name the chains, in order. [ ]: non-standard residue; d: D form. Actinocin(9to1) = Cc1c2oc3c(C)ccc(C(=O)[*:1])c3nc-2c(C(=O)[*:2])c(N)c1=O; NMeV = CN[C@H](C(=O)O)C(C)C; Sar = CNCC(=O)O
# What was measured:
# ApCPEB [1] = assay: ApCPEB protein induction in isolated pleural ganglia / sensory cell clusters stimulated with 5-HT, with or without pharmacological agents (Western blot); format: cell-based, Aplysia; conditions: for effect on 5-HT induction of ApCPEB: pretreatment
# Experimental: (§1) Aplysia weighing 80-100 grams were used for serotonin (5-HT) stimulation. For whole animal stimulation, the animals were stimulated for 1-1.5 hr at 17° C. with 100 uM of freshly prepared serotonin (Sigma) and then moved to sea water at 17° C. At designated times the pleural ganglia were dissected out. The dissection was carried out in ice cold seawater and frozen in a dry ice-ethanol bath. To apply different pharmacological agents, the pleural ganglia were dissected out and rested for 3-4 hrs at 17° C. before initiation of the treatment. The pleural ganglia were stimulated with 10 uM serotonin instead of 100 uM.
# (§2) For western blotting pleural ganglia were homogenized in a buffer containing 600 mM KCl, 10 mM HEPES (7.4), 3 mM MgCl2, 1 mM DTT, and 0.2% NP-40; rotated at 4° C. for 20 min, centrifuged at 14,000×g for 10 min and the supernatant was collected. Approximately 10 ug of total protein was separated on a 10% SDS-PAGE gel and transferred to PVDF membrane. The membranes were blotted with affinity purified CPEB 533 (1:4000), rabbit affinity purified Aplysia Ubiquitin hydrolase (1:1500), rabbit anti-synaptophysin (Zymed) (1:3000), mouse anti-human Hsp70 (1:4000) (BD Biosciences) or monoclonal anti-tubulin (1:3000) (Sigma) followed by incubation with 1:10,000 dilution of HRP coupled anti-rabbit or anti-mouse secondary antibody (Cell signaling) and visualized by chemiluminescence (Pierce chemical). For peptide competition the CPEB77 antibody was preincubated with the peptide (1:20 w/w) at 4° C. for 30 min.
# ApCPEB [2] = assay: ApCPEB immunostaining in isolated sensory neurites (cell bodies severed); format: cell-based, Aplysia
# Experimental: (§3) Following stimulation with serotonin, the cells were washed with filtered seawater and then fixed with freshly prepared 4% paraformaldehyde (PFA) in phosphate-buffered saline (PBS) plus 30% sucrose at 37° C. for 20 min. After fixation, cells were washed three times with PBS and incubated with 0.5% saponin (for isolated neurites) or 0.1% Triton X-100 (for one pulse of serotonin in the neurites) in PBS for 10 min at room temperature (RT). Subsequently cells were washed with PBS three times and excess PFA was quenched by incubating the cells in 50 mM NH4Cl in PBS for 15 min at RT. The fixed cells were blocked with a mixture of heat-inactivated 10% horse serum and 1% goat serum in PBS for 2 hr at RT, then in 1:30 dilution of affinity purified CPEB77 (for isolated neurites) or 1:100 dilution of 463 (for one pulse of serotonin in the synapse) overnight at 4° C. Next day cells were washed three times (20 min each wash) with PBS at RT before incubating with goat anti-rabbit secondary antibody conjugated with Alexa Fluor 488 (1:1000) (Molecular Probes) for 2 hr at room temperature. After three 15 min rinses with PBS cells were mounted on Fluoromount and pictures were taken at Zeiss Axiovert S-100 at 40× magnification using the program Metamorph.
# N-actin mRNA = assay: Poly-A tail length (PAT) assay of N-actin mRNA after whole-animal serotonin stimulation; format: in vivo, Aplysia
# Experimental: The polyA test (PAT) to measure the length of the polyA tail of CPEB mRNA was essentially done as described by Salles and Strickland (1999). Total RNA from the plural ganglia was digested with DNase1 and phenol: chloroform extracted. 3 ug of total RNA was reverse transcribed with 200 ng of AdT primer (5′-[…]-3′) (SEQ ID NO:23) using AMV reverse transcriptase. 2 ul of the cDNA was amplified with Taq polymerase using AdT and N-actin primer 5′-[…]-3′ (SEQ ID NO:17) in the PCR cycle: 94° C. 30 sec, 60° C. 1 min and 72° C. 1 min, 5 sec/cycle for 30 cycles. To check the amount of sensorin, Bmp1 and N-actin, the following primer pairs were used; sensorin-5′-AACAGAAACAGTC-TTTCCCCC-3′ (SEQ ID NO:24) and 5′-TCTTGACTCACCAACTGCC-3′ (SEQ ID NO:25), Bmp1-5′-ATCTATCGCCTATT-ATTATCACCA-3′ (SEQ ID NO:26) and 5′-[…]-3′ (SEQ ID NO:27), N-actin 5′-CCCATCCAT-TGTCCACA-3′ (SEQ ID NO:28) and 5′-TTTGAGCATTCTGGCTTC-3′(SEQ ID NO:29).
# ApCPEB [3] = assay: ApCPEB immunostaining in bifurcated sensory-motor culture, one branch stimulated with a single pulse of 5-HT; format: cell-based, Aplysia; conditions: 10 uM 5-HT for 50 seconds to one branch; fixed after one hour; n=10
# Experimental: as §3, with “Metamorph. […]” for “Metamorph.”
# ApCPEB [4] = assay: ApCPEB protein in pleural ganglia after whole-animal serotonin exposure (Western blot); format: in vivo, Aplysia
# Experimental: as §1, §2
# [5] = system: sensory-motor neuron synapses; conditions: cited from earlier work
# ApCPEB mRNA = assay: Semi-quantitative RT-PCR of ApCPEB mRNA in sensory cells of pleural ganglia; format: cell-based, Aplysia
# [6] = whole animal serotonin exposure then seawater
smiles,measurement,setting,value
CC[C@H](C)[C@@H]1NC(=O)CNC(=O)[C@@H]2Cc3c([nH]c4cc(O)ccc34)[S+]([O-])C[C@@H](NC(=O)CNC1=O)C(=O)N[C@@H](CC(N)=O)C(=O)N1C[C@H](O)C[C@H]1C(=O)N[C@@H]([C@@H](C)[C@@H](O)CO)C(=O)N2 (stereo in doubt) [α-amanitin],effect on 5-HT induction of ApCPEB,ApCPEB [1]; 50 ug/ml,did not block
CCCCCCOC(=O)[C@]1(O)C[C@@H]2O[C@@]1(C)n1c3ccccc3c3c4c(c5c6ccccc6n2c5c31)C(=O)NC4 [KT5720],effect on serotonin induced increase in ApCPEB,"ApCPEB [1]; PKA inhibitor pretreatment of sensory clusters, 30 min",did not block
Nc1ncnc2c1ncn2[C@@H]1O[C@@H]2COP(O)(=S)O[C@H]2[C@H]1O (stereo partly drawn) [SpcAMP],level of ApCPEB,"ApCPEB [1]; activation of PKA by cell permeable cAMP analog, data not shown",did not change
"Cc1c2oc3c(C)ccc(C(=O)N[C@@H]4C(=O)N[C@H](C(C)C)C(=O)N5CCC[C@H]5C(=O)N(C)CC(=O)N(C)[C@@H](C(C)C)C(=O)O[C@@H]4C)c3nc-2c(C(=O)N[C@@H]2C(=O)N[C@H](C(C)C)C(=O)N3CCC[C@H]3C(=O)N(C)CC(=O)N(C)[C@@H](C(C)C)C(=O)O[C@@H]2C)c(N)c1=O [actinomycin D] (I: T[dV]P[Sar][NMeV] / II: T[dV]P[Sar][NMeV]; ester I:1-I:C, II:1-II:C; linker I:N-II:N via Actinocin(9to1))",effect on 5-HT induction of ApCPEB,ApCPEB [1]; 10 ug/ml,did not block
COc1ccc2c(c[n+](C)c3c4cc5c(cc4ccc23)OCO5)c1OC [chelerythrine],effect on serotonin dependent increase of ApCPEB protein,"ApCPEB [1]; PKC inhibitor, 10 uM",did not affect
C[C@@H]1C[C@@H]([C@H](O)CC2CC(=O)NC(=O)C2)C(=O)[C@@H](C)C1 [cycloheximide],effect on 5-HT induction of ApCPEB protein,ApCPEB [1]; 40 uM,reduced
CC[C@H]1CN2CCc3cc(OC)c(OC)cc3[C@@H]2C[C@@H]1C[C@H]1NCCc2cc(OC)c(OC)cc21 [emetine],effect on 5-HT induction of ApCPEB protein,ApCPEB [1]; 100 uM,reduced
CO[C@H]1C[C@@H]2CC[C@@H](C)[C@@](O)(O2)C(=O)C(=O)N2CCCC[C@H]2C(=O)O[C@H]([C@H](C)C[C@@H]2CC[C@@H](O)[C@H](OC)C2)CC(=O)[C@H](C)/C=C(\C)[C@@H](O)[C@@H](OC)C(=O)[C@H](C)C[C@H](C)/C=C/C=C/C=C/1C [rapamycin],average fluorescence intensity (ApCPEB immunoreactivity),"ApCPEB [2]; neurites stimulated with 5-HT in presence of 20 nM rapamycin, n=9",0.77±0.1
NCCc1c[nH]c2ccc(O)cc12 [serotonin],average fold induction of ApCPEB,"ApCPEB [1]; 5-HT for an hour, western blots scanned and quantified with NIH image, controls of inhibitor sets (FIG. 5d)",3.3±0.4
same,increase of total CPEB content,"ApCPEB [1]; isolated pleural ganglia, 10 uM 5-HT",3-4 fold
same,increase in total ApCPEB protein content,"ApCPEB [1]; sensory cell clusters, 10 uM 5-HT for 10 min, then seawater 50 min",4-5 fold
same,duration of increased poly(A) tail of N-actin,N-actin mRNA; whole-animal stimulation,at least 4 hours
same,increase of poly(A) tail of N-actin,N-actin mRNA; within an hour after initiation of treatment,200-400 nucleotides
same,average fluorescence intensity (ApCPEB immunoreactivity) in treated branch,ApCPEB [3],53.3±8.7
same,increase of total content of ApCPEB,"ApCPEB [4]; whole animal exposed to serotonin for one hour, thirty minutes after initiation of treatment, pleural ganglia extract",4 to 5 fold
same,persistence of increased level of ApCPEB,ApCPEB [4]; [6],about 3 hours
same,return of ApCPEB to basal levels,ApCPEB [4]; [6],returned to basal levels after five hours
same,average fluorescence intensity (ApCPEB immunoreactivity) in stimulated neurites,"ApCPEB [2]; 10 uM 5-HT bath application 1 hr, n=8",9.37±0.73
same,duration of long-term facilitation (LTF),[5]; five pulses (Martin et al. 1997),three or more days
same,duration of synapse-specific short-term facilitation,[5]; single pulse to one of two sets of synapses (Martin et al. 1997),lasts for minutes
same,"amount of ApCPEB mRNA, treated versus untreated",ApCPEB mRNA,no significant difference
